Data from PMC4164784, “4E-BPs require non-canonical 4E-binding motifs and a lateral surface of eIF4E to repress translation” (Nature Communications, 2014).
No end group written: not given here.

Tests used:
[1] = tested on: endogenous eIF4E and HA-tagged 4E-BPs in S2 cells; assay: Immunofluorescence localization in S2 cells; assay type: cell-based, Drosophila melanogaster; conditions: −LMB; for localization of endogenous eIF4E (in words): S2 cells overexpressing 4E-BP or mutant; for localization of the 4E-BP (in words): S2 cells, steady-state
[2] = molecular target: T1, eIF4E–eIF4G complex (eIF4E WT; eIF4G residues 578–650) (Drosophila melanogaster, UniProt P48598); assay: Competition assay, displacement of GST-eIF4G from preassembled eIF4E (WT)–eIF4G complexes; assay type: biochemical; conditions: for displacement of eIF4G from eIF4E WT–eIF4G complex (in words): 2–20 μM GB1-fused competitor, Strep-Tactin pull down; for competition with eIF4G for eIF4E WT (in words): Fig. 5a,c, fivefold molar excess of MBP-tagged competitor, 30 min at 4 °C, m7GTP or Strep-Tactin pull down
T1 construct: full-length eIF4E (WT or the II-AA mutant) containing an N-terminal SNH-tag was coexpressed; made in house; host or cells: E. coli BL21 Star (DE3), coexpression
T1 sequence (P48598 1-248 isoform P48598-2): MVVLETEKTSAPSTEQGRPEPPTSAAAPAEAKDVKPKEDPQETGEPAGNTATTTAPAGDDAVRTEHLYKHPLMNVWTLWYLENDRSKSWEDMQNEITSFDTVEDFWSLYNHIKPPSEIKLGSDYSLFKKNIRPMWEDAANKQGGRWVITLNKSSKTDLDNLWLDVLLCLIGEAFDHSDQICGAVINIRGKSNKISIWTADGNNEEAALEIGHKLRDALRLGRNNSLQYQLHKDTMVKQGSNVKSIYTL
Description: For the competition assays shown in Figs 5a,c and 6a,b, complexes containing SHN- or MBP-tagged eIF4E (WT or II-AA mutant) bound to GST-eIF4G (residues 578–650), GST-Thor (full length), GST-4E-T (residues 1–58) or GST-CUP (311–440) were obtained by coexpressing the corresponding proteins in E. coli BL21 (DE3) STAR cells (30 ml culture). The cells were resuspended in lysis buffer (5 ml) that was supplemented with EDTA-free protease inhibitor (Roche) and 1 mg ml^−1 lysozyme and lysed by sonication. The cleared lysates were incubated with 400 μl of Protino Glutathione Agarose 4B (Macherey-Nagel) for 1 h. The beads were washed three times with lysis buffer, and the proteins were eluted after 10 min of incubation with lysis buffer containing 25 mM L-glutathione. The protein complexes were stored at −20 °C or used in competition assays.
The purified recombinant complexes were mixed with excess amounts of the indicated purified competitor proteins (Fig. 5c) or with bacterial lysates expressing the competitor proteins (Figs 5a and 6) and incubated for 30 min at 4 °C. After incubation, 20 μl of immobilized γ-Aminophenyl-m^7GTP or Strep-Tactin Sepharose (IBA), were added to the samples and incubated for another 40 min at 4 °C. The beads were washed three times with lysis buffer and eluted with lysis buffer containing 2.5 mM desthiobiotin (Strep-Tactin Sepharose) or with 20 μl of SDS–PAGE loading buffer (Aminophenyl-m^7GTP beads). The proteins were analyzed by 10–15% SDS–PAGE followed by staining with Coomassie blue staining. […]

[3] = tested on: endogenous eIF4E; assay: Coimmunoprecipitation / m7GTP pull-down with endogenous eIF4E in S2 cell lysates; assay type: cell-based, Drosophila melanogaster; conditions: western blot
How it was run: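 S2 cell lysates expressing HA-tagged 4E-BPs (CUP, Thor, 4E-T), eIF4G or mutants, immunoprecipitated with anti-eIF4E or anti-HA antibodies, or pulled down with m7GTP beads for 1 h at 4 °C. Washes in NET buffer (50 mM Tris pH 7.4, 150 mM NaCl, 1 mM EDTA, 0.1% Triton X-100). Bound proteins detected by anti-HA/anti-eIF4E western blot; pre-immune serum and HA-MBP as negative controls.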

[4] = Fig. 4, 2 μM complex, 20 min at 4 °C, n=2

With “4E-T C+NC: 4E-T residues 9–44, eIF4E-binding region short, C-terminal GB1” the “localization of endogenous eIF4E (in words)” value [1] was “the number of eIF4E-positive P-bodies was reduced”, the “localization of the 4E-BP (in words)” value [1] was “still localized to P-bodies” and the “displacement of eIF4G from eIF4E WT–eIF4G complex (in words)” value (“displacement of eIF4G” below) [2, 4] was “displaced eIF4G from the complex and associated with eIF4E”.

In the case of “4E-T C: 4E-T residues 9–21, canonical motif”, the “localization of endogenous eIF4E (in words)” value [1] is reported as “the number of eIF4E-positive P-bodies was reduced”, the “localization of the 4E-BP (in words)” value [1] is reported as “still localized to P-bodies” and the “interaction with endogenous eIF4E (in words)” value [3] is reported as “drastic reduction”.

“CUP C+NC: CUP residues 325–376, eIF4E-binding region short, C-terminal GB1 (KSYTRSRLMDIRNGMFNALMHRSKESFVMPRIATCDDIELEGRLRRMNIWRT-GB1; UniProt Q9VMA3 325-376, looked up, fragment)” was tested, and the “displacement of eIF4G” value [2, 4] was “displaced eIF4G from the complex and associated with eIF4E”, the “molar excess at which eIF4G was effectively displaced” value ([2]; Fig. 4, 2 μM complex, GB1-fused C+NC competitor, 20 min at 4 °C, n=2) was “two” and the “competition with eIF4G for eIF4E WT (in words)” value [2] was “efficiently displaced preassembled eIF4G”.

In the case of “Thor C+NC: Thor residues 50–83, eIF4E-binding region short, C-terminal GB1 (TKLIYERAFMKNLRGSPLSQTPPSNVPSCLLRGT-GB1; UniProt Q9XZ56 50-83, looked up, fragment)”, the “displacement of eIF4G” value [2, 4] is reported as “displaced eIF4G from the complex and associated with eIF4E”.

“Thor C: Thor residues 50–63, canonical motif” was tested, and the “competition with eIF4G for eIF4E WT (in words)” value [2] was “abolished competition” and the “interaction with endogenous eIF4E (in words)” value [3] was “disrupted the interaction with eIF4E”.
